We go through 2 molecules from PubChem BioAssay AID1312 (NMMLSC, 2008).

For the experiment, the system named is S. cerevisiae Sic1-GFP degradation, flow cytometry time course. As to the kind of experiment: yeast Sic1MUS-GFP fusion turnover – flow cytometry, Sic1MUS mutant, S. cerevisiae, mechanism study for 26S proteasome disassembly project, confirmation (AID 1312).

SMILES strings stand for the structures. Active and inactive are the calls of the source.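 How the source made its calls: active means area under the green fluorescent protein level over time curve over 15% above untreated cells; inactive means the rest.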 Peptide text beside a SMILES is read from it. * marks the point of attachment. Cbz = O=C(OCc1ccccc1)*

As for `CC(=O)N1C(=O)C(=C2C=C(C)OC(C)=C2)c2ccccc21`, the outcome is “active; degradation inhibitor”. The entry for `CC(C)C[C@@H](C=O)NC(=O)[C@H](CC(C)C)NC(=O)[C@H](CC(C)C)NC(=O)OCc1ccccc1` (Cbz-Leu-Leu-Leu-aldehyde) is “inactive”.
